In ChEMBL document CHEMBL3217405, “Methanocarba ring as a ribose modification in ligands of G protein-coupled purine and pyrimidine receptors: synthetic approaches” (Medchemcomm, 2013):

How the values were obtained:
[1] = biological target: Adenosine receptors; A1 & A3 (Homo sapiens) (UniProt P30542+P0DMS8); test: Selectivity ratio of adenosine A3 receptor (unknown origin) over adenosine A1 receptor (unknown origin)
[2] = biological target: T1, Adenosine receptor A3 (Homo sapiens, UniProt P0DMS8); test: Binding affinity to adenosine A3 receptor (unknown origin)
T1 sequence (P0DMS8 whole entry): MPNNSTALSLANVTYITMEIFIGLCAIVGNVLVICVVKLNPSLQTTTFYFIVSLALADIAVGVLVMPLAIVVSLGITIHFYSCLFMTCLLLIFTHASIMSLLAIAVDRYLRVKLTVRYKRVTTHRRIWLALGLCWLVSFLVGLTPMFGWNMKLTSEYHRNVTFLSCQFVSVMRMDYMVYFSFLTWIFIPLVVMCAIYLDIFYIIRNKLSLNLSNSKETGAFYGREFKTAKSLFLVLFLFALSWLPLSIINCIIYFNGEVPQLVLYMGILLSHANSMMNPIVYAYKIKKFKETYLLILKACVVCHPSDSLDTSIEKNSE

[3] = biological target: T1, Adenosine receptor A3; test: Agonist activity at adenosine A3 receptor (unknown origin) assessed as stimulation of [35S]GTPgammaS binding; format: functional

| SMILES | Selectivity ratio [1] | EC50 [3] | other results |
| --- | --- | --- | --- |
| CNC(=O)[C@@]12C[C@@H]1[C@@H](n1cnc3c(NC)nc(Cl)nc31)[C@H](O)[C@@H]2O | 130 | – | – |
| O=P(O)(OC[C@@]12C[C@@H]1[C@@H](n1cnc3c(O)ncnc31)[C@H](O)[C@@H]2O)OP(=O)(O)OC[C@@]12C[C@@H]1[C@@H](n1cnc3c(O)ncnc31)[C@H](O)[C@@H]2O | – | – | Ki [2]: 22 µM |
| CNc1ncnc2c1ncn2[C@H]1[C@H](O)[C@H](O)[C@]2(CO)C[C@H]12 | 12 | – | – |
| OC[C@@]12C[C@@H]1[C@@H](n1cnc3c(NCc4cccc(I)c4)ncnc31)[C@H](O)[C@@H]2O | – | < 0.001 µM | – |
| CNc1nc(Cl)nc2c1ncn2[C@H]1[C@H](O)[C@H](O)[C@]2(CO)C[C@H]12 | 39 | – | – |
| OC[C@@]12C[C@@H]1[C@@H](n1cnc3c(NCc4cccc(I)c4)nc(Cl)nc31)[C@H](O)[C@@H]2O | – | < 0.001 µM | – |
